From publication PMC3977315 (2010) come the findings set out here.

Bounds are passed on as bounds.

The test system of assay [1] is poly(dA)•2poly(dT) (DNA, polymer) A/T. Description: UV melting. The settings on record: K+ 150 mM, 10 mM sodium cacodylate, pH 6.8, rdb 1.67.
Assay [2] has the same test system. Put plainly: calorimetric/spectroscopic thermodynamic profile. The settings on record: K+ 150 mM; 10 mM sodium cacodylate, 0.5 mM EDTA, pH 5.5, 20 °C.
Assay [3] relates to poly(dA)•poly(dT) (DNA, polymer) A/T. Put plainly: fluorescent intercalator displacement. The settings on record: K+ 150 mM; Na+ 10 mM; thiazole orange not displaced; highest concentration 10 mM.
The test system of assay [4] is poly(dA)•2poly(dT) (DNA, polymer) A/T. Description: fluorescent intercalator displacement. The settings on record: thiazole orange displaced.

What is called AC50 is the concentration at which the activity in the assay is half-maximal. Lower therefore signals activity at low concentration. `NC[C@@H]1O[C@H](O[C@H]2[C@@H](O)[C@H](O[C@@H]3[C@@H](O)[C@H](N)C[C@H](N)[C@H]3O[C@H]3O[C@H](CN)[C@@H](O)[C@H](O)[C@H]3N)O[C@@H]2CO)[C@H](N)[C@@H](O)[C@@H]1O`: the ΔTm3→2 in assay [1] (25 μM neomycin, per base) is ~ 25 °C. For the same compound, the “KT(20°C)” value in assay [2] is recorded as “(2.4±0.1)×10^5 M^−1”. Besides, the AC50 in assay [3] is listed as above 10 mM.
Turning to `NC[C@H]1O[C@H](O[C@H]2[C@H](O[C@@H]3O[C@H](CO)[C@@H](O)[C@H]3O)[C@@H](O)[C@H](N)C[C@@H]2N)[C@H](N)[C@@H](O)[C@@H]1O`, the binding result in assay [4] is “weak”.
On to `NC[C@H]1O[C@H](O[C@H]2[C@H](O)[C@@H](O)[C@H](N)C[C@@H]2N)[C@H](N)[C@@H](O)[C@@H]1O`, for which the binding result in assay [1] is “weak”.
